In BindingDB's records for doi:10.3109/14756366.2012.677838 (Inonu University, 2013):

What was measured:
Carbonic anhydrase 2 = Carbonic anhydrase 2 (Homo sapiens, UniProt P00918); test: CA Enzyme Assay; settings: pH 10
Protocol: (§1) CA activity was measured by the Maren method which is based on determination of the time required for the pH to decrease from 10.0 to 7.4 due to CO2 hydration [Maren et al., J. Pharm. Exp. Ther., 130:2629-2634]. The assay solution was 0.5 M Na2CO3/0.1 M NaHCO3 (pH 10.0) and Phenol Red was added as the pH indicator.

Carbonic anhydrase 1 = Carbonic anhydrase 1 (Homo sapiens, UniProt P00915); test: CA Enzyme Assay; settings: pH 10
Carbonic anhydrase 1, sequence (P00915 whole entry): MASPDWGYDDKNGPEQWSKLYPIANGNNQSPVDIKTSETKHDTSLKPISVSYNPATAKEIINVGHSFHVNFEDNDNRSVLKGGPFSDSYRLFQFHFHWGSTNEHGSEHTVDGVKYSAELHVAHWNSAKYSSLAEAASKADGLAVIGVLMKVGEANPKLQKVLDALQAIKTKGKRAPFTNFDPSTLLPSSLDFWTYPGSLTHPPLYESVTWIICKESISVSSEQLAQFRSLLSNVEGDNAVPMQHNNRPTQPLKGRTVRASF
Protocol: as §1

SMILES	IC50 (Carbonic anhydrase 2) [µM]	IC50 (Carbonic anhydrase 1) [µM]
CCOCCN1CN(Cc2cc(=O)oc3c(O)c(O)ccc23)c2ccccc21 [1-(2-Ethoxyethyl)-3-(4-methyl-7,8-dihydroxy-2H-chromen-2-one)benzimidazolium chloride (3e)]	33.2	32.9
COCCN1CN(Cc2cc(=O)oc3c(O)c(O)ccc23)c2ccccc21 [1-(2-Methoxyethyl)-3-(4-methyl-7,8-dihydroxy-2H-chromen-2-one)benzimidazolium chloride (3d)]	41.4	32.6
Cc1cccc(CN2CN(Cc3cc(=O)oc4c(O)c(O)ccc34)c3ccccc32)c1 [1-(3-Methylbenzyl)-3-(4-methyl-7,8-dihydroxy-2H-chromen-2-one)benzimidazolium chloride (3g)]	28.9	22.1
C=CCN1CN(Cc2cc(=O)oc3c(O)c(O)ccc23)c2ccccc21 [1-Allyl-3-(4-methyl-7,8-dihydroxy-2H-chromen-2-one)benzimidazolium chloride (3c)]	29.7	48.1
